Results from patent US8927547B2, “Pyrimidine derivatives” (Noviga Research AB, priority 2010, dated 2015).

Columns and labels:
Type in all cases: cell-based
RPMI 8226 = assay: FMCA, RPMI 8226 myeloma; conditions: Homo sapiens, read-out: EC50 (μM) in various cancer cell lines: RPMI 8226
From the text: (§1) The Fluorometric Microculture Cytotoxicity Assay, FMCA, is a three day non-clonogenic microplate-based cell viability assay used for measurement of the cytotoxic and/or cytostatic effect of compounds in vitro (Lindhagen, E., et al. Nat Protoc, 2008. 3(8): p. 1364-9). FMCA (Larsson, R. and P. Nygren, Anticancer Res, 1989. 9(4): p. 1111-9) represents a valuable method to measure cytotoxicity in a number of cell types, both cell lines and primary cells from patients (Larsson, R., et al., Int J Cancer, 1992. 50(2): p. 177-85; Fridborg, H., et al., Eur J Cancer, 1999. 35(3): p. 424-32; Dhar, S., et al., Br J Cancer, 1996. 74(6): p. 888-96).
(§2) FMCA is based on the principle that fluorescein diacetate (FDA) is converted to the fluorescent probe fluorescein by esterases in the plasma membranes of living cells. For experiments, 96 or 384-well microplates are prepared with compounds and stored at −70° C. until use. Cells are then seeded into the drug-prepared plates and placed in an incubator for 72 h. On the last day of incubation, the plates are washed and a buffer containing FDA is added and incubated with the cells for 45 minutes. Finally the fluorescence per well is measured in a fluorometer and a Survival Index % (SI) for each compound-treated well is calculated with the equation: Compound-treated cells minus blank divided by control cells minus blank. A high SI-value indicates a large percentage of living cells and vice versa.
(§3) Compounds of the invention as well as kinase inhibitors sorafenib, sunitinib, dasatinib, and pazopanib (reference compounds) were diluted with PBS to a concentration which was ten-times higher than the desired starting concentration. Then, a Biomek 2000 liquid handling system was employed to serially dilute the compounds in a deep-well 384-well plate. From this plate, assay plates containing 5 μl compound per well were prepared with the Biomek 2000. Certain compounds precipitated when diluted with PBS, and these compounds were therefore prepared in a 96-well plate manually as described above using culture medium RPMI 1640 instead of PBS.
(§4) The compounds were also tested at five concentrations, with five times serial dilution on the following cell types: CCRF-CEM, hTERT-RPE1 (normal retinal epithelial cells), hRPTEpiC (normal renal cells) and PBMC (peripheral blood mononuclear cells). Each experiment was performed three times, except for PBMC and hRPTEpiC, which were performed twice. SI-values were calculated, graphs were plotted using GraphPadPrism 5.0 (GraphPad Software Inc. La Jolla, Calif.) and EC50-values for each cell type and compound were determined from the curves.
(§5) The compounds of the invention were also tested on further cancer cell lines related to colon cancer (HCT116; see e.g Brattain M G, et al. Cancer Res. 1981, 41, 1751-1756), breast cancer (MCF7; see e.g. Soule H D, et al. J. Natl. Cancer Inst. 1973, 51, 1409-1416), teniposide-resistant leukaemia (CEM/VM1; see e.g. Danks M K et al. Cancer Res. 1987, 47, 1297-1301), lung cancer (H69; see e.g. Gazdar A F, et al. Cancer Res. 1980, 40, 3502-3507), doxorubicin-resistant lung cancer (H69AR; see e.g. Mirski S E, et al. Cancer Res. 1987, 47, 2594-2598), myeloma (RPMI 8226; see e.g. Matsuoka Y, et al. Proc. Soc. Exp. Biol. Med. 1967, 125, 1246-1250), doxorubicin-resistant myeloma (8226/Dox40; see e.g. Dalton W S et al. Blood 1989, 15,747-752), lymphoma (U-937, see e.g. Sundstrom C, et al. Int. J. Cancer 1976, 17, 565-577), vincristin-resistant lymphoma (U-937-vcr; see e.g. Botling J, et al. Int J Cancer 1994, 15; 58 (2), 269-274), ovarian cancer (A2780; see e.g. Hamilton T C, et al. Semin Oncol. 1984, 11, 285-298), doxorubicin-resistant ovarian cancer (A2780/Adr), cisplatin-resistant ovarian cancer (A2780/Cis; see e.g. Behrens B C, et al. Cancer Res. 1987, 47, 414-418), renal cancer (ACHN; see e.g. Borden E C, et al. Cancer Res. 1982, 42(12), 4948-4953), pancreatic cancer (PANC-1, BxPC-3, and MIA PaCa-2; see e.g. Lieber M, et al. Int. […]

MCF7 = assay: FMCA, MCF7 breast cancer; conditions: Homo sapiens, read-out: EC50 (μM) in various cancer cell lines: MCF7
From the text: as §1, §2, §3, §4, §5

[1] = tested on: CCRF-CEM cancer cells - leukaemia; assay: Fluorometric Microculture Cytotoxicity Assay (FMCA), CCRF-CEM; conditions: Homo sapiens, 72 h incubation
How it was run: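 CCRF-CEM cells were seeded onto compound-prepared plates and incubated 72 h, then viability was read by fluorescein diacetate conversion (45 min) on a fluorometer. Survival index was calculated against control and blank wells. EC50 came from five-concentration, five-fold dilution curves from replicate experiments.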

A2780/Adr = assay: FMCA, A2780/Adr doxorubicin-resistant ovarian cancer; conditions: read-out: EC50 (μM) in various cancer cell lines: A2780/Adr
From the text: as §1, §2, §3, §4
(§6) The compounds of the invention were also tested on further cancer cell lines related to colon cancer (HCT116; see e.g Brattain M G, et al. Cancer Res. 1981, 41, 1751-1756), breast cancer (MCF7; see e.g. Soule H D, et al. J. Natl. Cancer Inst. 1973, 51, 1409-1416), teniposide-resistant leukaemia (CEM/VM1; see e.g. Danks M K et al. Cancer Res. 1987, 47, 1297-1301), lung cancer (H69; see e.g. Gazdar A F, et al. Cancer Res. 1980, 40, 3502-3507), doxorubicin-resistant lung cancer (H69AR; see e.g. Mirski S E, et al. Cancer Res. 1987, 47, 2594-2598), myeloma (RPMI 8226; see e.g. Matsuoka Y, et al. Proc. Soc. Exp. Biol. Med. 1967, 125, 1246-1250), doxorubicin-resistant myeloma (8226/Dox40; see e.g. Dalton W S et al. Blood 1989, 15,747-752), lymphoma (U-937, see e.g. Sundstrom C, et al. Int. […]

MIA PaCa-2 = assay: FMCA, MIA PaCa-2 pancreatic cancer; conditions: Homo sapiens, read-out: EC50 (μM) in various cancer cell lines: MIA PaCa-2
From the text: as §1
as §2, with “versa. […]” for “versa.”
as §4, with “Each experiment was performed three times, except for PBMC and hRPTEpiC, which were performed twice.” left out, “curves. […]” for “curves.”

8226/Dox40 = assay: FMCA, 8226/Dox40 doxorubicin-resistant myeloma; conditions: read-out: EC50 (μM) in various cancer cell lines: 8226/Dox40
From the text: as §1, §2, §3, §4, §5

H69AR = assay: FMCA, H69AR doxorubicin-resistant lung cancer; conditions: Homo sapiens, read-out: EC50 (μM) in various cancer cell lines: H69 AR
From the text: as §1, §2, §3, §4, §5

PANC-1 = assay: FMCA, PANC-1 pancreatic cancer; conditions: Homo sapiens, read-out: EC50 (μM) in various cancer cell lines: PANC-1
From the text: as §1
as §2, with “versa. […]” for “versa.”
as §4, with “Each experiment was performed three times, except for PBMC and hRPTEpiC, which were performed twice.” left out, “curves. […]” for “curves.”

H69 = assay: FMCA, H69 lung cancer; conditions: Homo sapiens, NCI-H69, read-out: EC50 (μM) in various cancer cell lines: H69
From the text: as §1, §2, §3, §4, §5

A2780 = assay: FMCA, A2780 ovarian cancer; conditions: Homo sapiens, read-out: EC50 (μM) in various cancer cell lines: A2780
From the text: as §1, §2, §3, §4, §5

U-937-vcr = assay: FMCA, U-937-vcr vincristin-resistant lymphoma; conditions: read-out: EC50 (μM) in various cancer cell lines: U-937-ver
From the text: as §1, §2, §3, §4, §5

HCT116 = assay: FMCA, HCT116 colon cancer; conditions: Homo sapiens, HCT-116, read-out: EC50 (μM) in various cancer cell lines: HCT116
From the text: as §1, §2, §3, §4, §5

U-937 = assay: FMCA, U-937 lymphoma; conditions: Homo sapiens, read-out: EC50 (μM) in various cancer cell lines: U-937
From the text: as §1, §2, §3, §4, §5

ACHN = assay: FMCA, ACHN renal cancer; conditions: Homo sapiens, read-out: EC50 (μM) in various cancer cell lines: ACHN
From the text: as §1, §2, §3, §4, §5

CEM/VM1 = assay: FMCA, CEM/VM1 teniposide-resistant leukaemia; conditions: Homo sapiens, read-out: EC50 (μM) in various cancer cell lines: CEM/VM1
From the text: as §1, §2, §3, §4, §5

BxPC-3 = assay: FMCA, BxPC-3 pancreatic cancer; conditions: Homo sapiens, read-out: EC50 (μM) in various cancer cell lines: BxPC-3
From the text: as §1
as §2, with “versa. […]” for “versa.”
as §4, with “Each experiment was performed three times, except for PBMC and hRPTEpiC, which were performed twice.” left out, “curves. […]” for “curves.”

A2780/Cis = assay: FMCA, A2780/Cis cisplatin-resistant ovarian cancer; conditions: A2780cis, read-out: EC50 (μM) in various cancer cell lines: A2780/Cis
From the text: as §1, §2, §3, §4, §6

## COc1ccc2[nH]cc(CCNc3nccc(NCc4ccc5[nH]ccc5c4)n3)c2c1 [Example 12, N^4-(1H-indol-5-ylmethyl)-N^2-[2-(5-methoxy-1H-indol-3-yl)ethyl]pyrimidine-2,4-diamine]
RPMI 8226
  EC50: 0.53 µM
MCF7
  EC50: 3.88 µM
[1]
  EC50: 760 nM
A2780/Adr
  EC50: 1.9 µM
MIA PaCa-2
  EC50: < 0.1 µM
8226/Dox40
  EC50: 1.81 µM
H69AR
  EC50: 0.27 µM
PANC-1
  EC50: < 0.1 µM
H69
  EC50: 7.84 µM
A2780
  EC50: 0.47 µM
U-937-vcr
  EC50: 0.3 µM
HCT116
  EC50: 0.63 µM
U-937
  EC50: 0.27 µM
ACHN
  EC50: 1.9 µM
CEM/VM1
  EC50: 0.17 µM
BxPC-3
  EC50: < 0.1 µM
A2780/Cis
  EC50: 0.61 µM
